Literature values, collected in PMC6151383 (Molecules : A Journal of Synthetic Chemistry and Natural …, 2017).

Test system: Staphylococcus aureus, including a methicillin-resistant strain (MRSA), M. tuberculosis and Mycobacterium avium
Conditions: range over S. aureus; cited from earlier work

O=S(=O)(Nc1ncccn1)c1ccc(N=Cc2cc(Cl)ccc2O)cc1 [Compound 2c, 4-[(5-Chloro-2-hydroxybenzylidene)amino]-N-(pyrimidin-2-yl)benzenesulfonamide]
MIC values: 125 to 250 µM
